Test results as given in patent US20250313533A1, “QUINOLINE CARBOXYLIC ACID ESTER COMPOUND AND PREPARATION METHOD AND USE THEREOF” (priority 2019, published 2025).

Assays:
[1] = test system: bacterial wilt in tobacco; test: whole plant or invertebrate; conditions: Nicotiana tabacum, read-out: efficacy against bacterial wilt in tobacco
[2] = test system: pathogenic bacteria causing black rot in Chinese cabbages; test: In vitro bactericidal activity, black rot in Chinese cabbages; type: cell-based, xanthomonas; conditions: Xanthomonas, read-out: inhibitory rate; for inhibition at 1 ppm: dosage 1 ppm; for inhibition at 5 ppm: dosage 5 ppm
[3] = test system: pathogenic bacteria causing fruit blotch in watermelons; test: In vitro bactericidal activity, fruit blotch in watermelons; type: cell-based, acidovorax; conditions: read-out: inhibitory rate; for inhibition at 1 ppm: dosage 1 ppm; for inhibition at 5 ppm: dosage 5 ppm
[4] = test system: indoor potted cucumber seedlings; test: Effect of improving growth and development of crops; type: in vivo; parameters: Rate of growth rate increase (%): concentration or dose not given beside the values; conditions: versus blank control; for Rate of chlorophyll content increase (%) / Rate of leaf area increase (%): 14 days after application; for Rate of growth rate increase (%): plant height 14 days after application; for Rate of leaf area increase (%): second leaf
In short: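 Growth effects were scored as percent increases in height growth rate, second-leaf area and chlorophyll (SPAD meter), comparing values taken before and 14 days after application.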

[5] = test system: soft rot in Chinese cabbages; test: whole plant or invertebrate; conditions: 48 h, read-out: efficacy against soft rot in Chinese cabbages
cucumber seedlings = test: Safety for plant growth after application; type: in vivo; conditions: dosage 200 ppm
In short: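 Indoor potted cucumber seedlings were treated with the compounds, and crop safety was judged from effects on plant height growth rate, chlorophyll content and leaf area.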

[6] = test system: pathogenic bacteria causing bacterial wilt in tobacco; test: whole plant or invertebrate; type: cell-based, ralstonia; conditions: read-out: inhibitory rate
[7] = test system: pathogenic bacteria causing stem rot in sweet potatoes; test: In vitro bactericidal activity, stem rot in sweet potatoes; type: cell-based, dikia; conditions: read-out: inhibitory rate; for inhibition at 1 ppm: dosage 1 ppm; for inhibition at 5 ppm: dosage 5 ppm
black shank in potatoes = test: Living crops in vivo protective activity, potatoes (root irrigation); conditions: Solanum tuberosum, read-out: efficacy against black shank in potatoes; for pest or weed control at 5 ppm: dosage 5 ppm; for pest or weed control at 10 ppm: dosage 10 ppm
Protocol: Root irrigation was carried out on the potatoes for tests according to the designed concentration of the agents. The dosage for each plant was 200 mL and was kept consistent (also for the control). The black shank bacteria were inoculated on the second day after the application. The results were investigated according to the disease condition.

[8] = test system: stem rot in sweet potatoes; test: whole plant or invertebrate; conditions: read-out: efficacy against stem rot in sweet potatoes
[9] = test system: pathogenic bacteria causing black shank in potatoes; test: In vitro bactericidal activity, black shank in potatoes; type: cell-based; conditions: read-out: inhibitory rate; for inhibition at 1 ppm: dosage 1 ppm; for inhibition at 5 ppm: dosage 5 ppm
bacterial blight in rice = test: whole plant or invertebrate; conditions: Oryza sativa, read-out: efficacy against bacterial blight in rice
[10] = test system: pathogenic bacteria causing fire blight in pears; test: In vitro bactericidal activity, fire blight in pears; type: cell-based, erwinia; conditions: Erwinia, read-out: inhibitory rate; for inhibition at 1 ppm: dosage 1 ppm; for inhibition at 5 ppm: dosage 5 ppm
[11] = test system: pathogenic bacteria causing bacterial blight in rice; test: whole plant or invertebrate; type: cell-based, xanthomonas; conditions: read-out: inhibitory rate
[12] = test system: fruit blotch in watermelons; test: whole plant or invertebrate; conditions: read-out: efficacy against fruit blotch in watermelons
[13] = test system: pathogenic bacteria causing bacterial wilt in cassava; test: organism not typed; type: cell-based; conditions: read-out: inhibitory rate
[14] = test system: pathogenic bacteria causing bacterial angular leaf spot in cucumbers; test: In vitro bactericidal activity, bacterial angular leaf spot in cucumbers; type: cell-based, pseudomonas; conditions: read-out: inhibitory rate; for inhibition at 1 ppm: dosage 1 ppm; for inhibition at 5 ppm: dosage 5 ppm

Row | Compound | pest or weed control at 5 ppm [1] | pest or weed control at 10 ppm [1] | inhibition at 1 ppm [2] | inhibition at 5 ppm [2] | inhibition at 1 ppm [3] | inhibition at 5 ppm [3] | Rate of chlorophyll content increase (%) [4] | Rate of growth rate increase (%) [4] | Rate of leaf area increase (%) [4] | pest or weed control at 5 ppm [5] | pest or weed control at 10 ppm [5] | safety for plant growth (discoloration, necrosis, wilt, malformation) (cucumber seedlings) | inhibition at 1 ppm [6] | inhibition at 5 ppm [6] | inhibition at 1 ppm [7] | inhibition at 5 ppm [7] | pest or weed control at 5 ppm (black shank in potatoes) | pest or weed control at 10 ppm (black shank in potatoes) | pest or weed control at 5 ppm [8] | pest or weed control at 10 ppm [8] | also measured
1 | COCCOC(=O)c1cn(C2CC2)c2ccc(F)cc2c1=O [Compound 10, 2-methoxyethyl 1-cyclopropyl-6-fluoro-4-oxo-1,4-dihydroquinoline-3-carboxylate] | ≥ 90% | ≥ 90% | ≥ 90% | ≥ 90% | ≥ 90% | ≥ 90% | 13% | 9% | 10% | ≥ 80% | ≥ 90% | safe for plant growth | ≥ 80% | ≥ 90% | ≥ 90% | ≥ 90% | ≥ 80% | ≥ 90% | ≥ 90% | ≥ 90% | inhibition at 1 ppm [9]: ≥ 80%; inhibition at 5 ppm [9]: ≥ 90%; pest or weed control at 5 ppm (bacterial blight in rice): ≥ 80%; pest or weed control at 10 ppm (bacterial blight in rice): ≥ 90%; inhibition at 1 ppm [10]: ≥ 90%; inhibition at 5 ppm [10]: ≥ 90%; inhibition at 1 ppm [11]: ≥ 80%; inhibition at 5 ppm [11]: ≥ 90%; pest or weed control at 5 ppm [12]: ≥ 90%; pest or weed control at 10 ppm [12]: ≥ 90%; inhibition at 1 ppm [13]: ≥ 90%; inhibition at 5 ppm [13]: ≥ 90%; inhibition at 1 ppm [14]: ≥ 90%; inhibition at 5 ppm [14]: ≥ 90%
2 | CC(C)(C)Oc1cc2c(cc1F)c(=O)c(C(=O)OCCO)cn2C1CC1 [Compound 270] | ≥ 90% | ≥ 90% | ≥ 90% | ≥ 90% | ≥ 90% | ≥ 90% | 10% | 9% | 12% | ≥ 90% | ≥ 90% | safe for plant growth | ≥ 90% | ≥ 90% | ≥ 90% | ≥ 90% | ≥ 80% | ≥ 90% | ≥ 90% | ≥ 90% | inhibition at 1 ppm [9]: ≥ 90%; inhibition at 5 ppm [9]: ≥ 90%; pest or weed control at 5 ppm (bacterial blight in rice): ≥ 90%; pest or weed control at 10 ppm (bacterial blight in rice): ≥ 90%; inhibition at 1 ppm [10]: ≥ 90%; inhibition at 5 ppm [10]: ≥ 90%; inhibition at 1 ppm [11]: ≥ 90%; inhibition at 5 ppm [11]: ≥ 90%; pest or weed control at 5 ppm [12]: ≥ 90%; pest or weed control at 10 ppm [12]: ≥ 90%; inhibition at 1 ppm [13]: ≥ 90%; inhibition at 5 ppm [13]: ≥ 90%; inhibition at 1 ppm [14]: ≥ 90%; inhibition at 5 ppm [14]: ≥ 90%
3 | COCCOC(=O)c1cn(C2CC2)c2cc(OC)c(F)cc2c1=O [Compound 281] | ≥ 90% | ≥ 90% | ≥ 90% | ≥ 90% | ≥ 90% | ≥ 90% | 16% | 13% | 13% | ≥ 90% | ≥ 90% | safe for plant growth | ≥ 90% | ≥ 90% | ≥ 90% | ≥ 90% | ≥ 90% | ≥ 90% | ≥ 90% | ≥ 90% | inhibition at 1 ppm [9]: ≥ 90%; inhibition at 5 ppm [9]: ≥ 90%; pest or weed control at 5 ppm (bacterial blight in rice): ≥ 90%; pest or weed control at 10 ppm (bacterial blight in rice): ≥ 90%; inhibition at 1 ppm [10]: ≥ 90%; inhibition at 5 ppm [10]: ≥ 90%; inhibition at 1 ppm [11]: ≥ 90%; inhibition at 5 ppm [11]: ≥ 90%; pest or weed control at 5 ppm [12]: ≥ 90%; pest or weed control at 10 ppm [12]: ≥ 90%; inhibition at 1 ppm [13]: ≥ 90%; inhibition at 5 ppm [13]: ≥ 90%; inhibition at 1 ppm [14]: ≥ 90%; inhibition at 5 ppm [14]: ≥ 90%
4 | CCSc1cc2c(cc1F)c(=O)c(C(=O)OCCO)cn2C1CC1 [Compound 372] | ≥ 90% | ≥ 90% | ≥ 90% | ≥ 90% | ≥ 90% | ≥ 90% | 11% | 8% | 10% | ≥ 90% | ≥ 90% | safe for plant growth | ≥ 90% | ≥ 90% | ≥ 90% | ≥ 90% | ≥ 90% | ≥ 90% | ≥ 90% | ≥ 90% | inhibition at 1 ppm [9]: ≥ 90%; inhibition at 5 ppm [9]: ≥ 90%; pest or weed control at 5 ppm (bacterial blight in rice): ≥ 90%; pest or weed control at 10 ppm (bacterial blight in rice): ≥ 90%; inhibition at 1 ppm [10]: ≥ 90%; inhibition at 5 ppm [10]: ≥ 90%; inhibition at 1 ppm [11]: ≥ 90%; inhibition at 5 ppm [11]: ≥ 90%; pest or weed control at 5 ppm [12]: ≥ 90%; pest or weed control at 10 ppm [12]: ≥ 90%; inhibition at 1 ppm [13]: ≥ 90%; inhibition at 5 ppm [13]: ≥ 90%; inhibition at 1 ppm [14]: ≥ 90%; inhibition at 5 ppm [14]: ≥ 90%
